In patent publication US11008282B2, “Bicyclic-compounds for use as a medicament, in particular for treatment of parkinson's disease” (CAPROTEC BIOANALYTICS GMBH, priority 2015, dated 2021):
“Also recorded” adds a separate entry of the source. Where two headings read alike, the source gives them in different places.

What was measured:
HIBCH [1] = molecular target: T1, HIBCH (Homo sapiens, UniProt Q6NVY1); experiment: dCCMS and dose-dependent capturing, HepG2 lysate; assay type: binding; design: performing CCMS experiments in the hepatoma-derived cell line HepG2; host or cells: HepG2 lysate; settings: for competition of HIBCH capture (dCCMS): CPT-224 1 μM, competitor 50 μM, HepG2 lysate; for binding to HIBCH: dCCMS (FIG. 5, FIG. 6)
T1 sequence (Q6NVY1 33-386): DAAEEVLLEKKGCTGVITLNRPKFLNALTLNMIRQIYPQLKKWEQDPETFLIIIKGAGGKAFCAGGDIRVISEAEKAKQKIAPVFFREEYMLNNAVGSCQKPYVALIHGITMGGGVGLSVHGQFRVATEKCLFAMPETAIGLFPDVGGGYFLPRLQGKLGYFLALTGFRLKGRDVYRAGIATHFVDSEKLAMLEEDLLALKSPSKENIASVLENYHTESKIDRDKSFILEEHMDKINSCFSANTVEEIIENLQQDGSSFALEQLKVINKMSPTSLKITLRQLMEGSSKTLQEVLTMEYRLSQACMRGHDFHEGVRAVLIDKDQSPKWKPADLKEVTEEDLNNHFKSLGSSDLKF

HIBCH [2] = molecular target: T1, HIBCH; experiment: Capture assay with CPT-224 followed by anti-HIBCH / streptavidin Western Blot; assay type: binding; design: made in house; host or cells: E. coli BL21; settings: for competition of HIBCH capturing (anti-HIBCH Western Blot): CPT-224, competitor; for competition of crosslinking of HIBCH with CPT-224 (anti-Streptavidin Western Blot): recombinant HIBCH
COMT [3] = molecular target: T2, COMT (Homo sapiens, UniProt P21964); experiment: Capture assay with CPT-224 followed by anti-COMT / streptavidin Western Blot; assay type: binding; settings: for competition of COMT capturing (anti-COMT Western Blot): active capture compound, competitor; for competition of crosslinking of COMT with CPT-224 (anti-Streptavidin Western Blot): recombinant COMT
T2 construct: His; host or cells: E. coli BL21
T2 sequence (P21964 1-221 isoform P21964-2): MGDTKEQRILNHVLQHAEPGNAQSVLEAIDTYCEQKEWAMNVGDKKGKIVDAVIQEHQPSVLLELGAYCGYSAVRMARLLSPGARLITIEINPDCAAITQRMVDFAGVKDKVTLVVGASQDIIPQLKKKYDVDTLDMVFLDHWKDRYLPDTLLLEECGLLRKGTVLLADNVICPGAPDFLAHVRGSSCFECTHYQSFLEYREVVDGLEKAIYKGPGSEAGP

HepG2 cells [4] = experiment: Mitochondrial toxicity assessment (Glu/Gal), ATPlite / Mitochondrial ToxGlo assay; assay type: cell-based, human; settings: for mitochondrial cytotoxicity: HepG2 cells (FIG. 7); for IC50 in galactose media compared to glucose media: ATP content, HepG2 cells
COMT [5] = molecular target: T2, COMT; experiment: COMT activity microplate assay (aesculetin methylation, fluorometric); assay type: biochemical
HepG2 cells [6] = settings: human
COMT [7] = molecular target: T3, COMT (Homo sapiens, UniProt P21964); experiment: CCMS differential competition and dose-dependent capturing, HepG2 lysate; assay type: binding; settings: for Fc: fold change assay vs competition, 50 μM competitor; for Fc / MS/MS: CPT-224 1 μM; for MS/MS: with 50 μM competitor, HepG2 lysate; for competition of COMT capture, dose-dependent capturing: CPT-224 5 μM to 40 nM
T3 construct: performing CCMS experiments in the hepatoma-derived cell line HepG2; host or cells: HepG2 lysate
T3 sequence (P21964 1-271): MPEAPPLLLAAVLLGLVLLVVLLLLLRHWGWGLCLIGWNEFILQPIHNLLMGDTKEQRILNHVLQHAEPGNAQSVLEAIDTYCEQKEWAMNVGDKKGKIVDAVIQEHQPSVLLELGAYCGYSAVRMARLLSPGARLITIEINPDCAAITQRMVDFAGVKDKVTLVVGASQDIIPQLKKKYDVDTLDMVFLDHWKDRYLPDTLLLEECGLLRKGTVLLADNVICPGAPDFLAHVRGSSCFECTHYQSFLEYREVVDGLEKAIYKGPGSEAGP

PDXK = molecular target: T4, PDXK (Homo sapiens, UniProt O00764); experiment: CCMS differential competition, HepG2 lysate, inactive capture compound CPT-220; assay type: binding; settings: CPT-220 1 μM; for Fc: fold change assay vs competition, 50 μM competitor; for MS/MS: with 50 μM competitor, HepG2 lysate
T4 construct: performing CCMS experiments in the hepatoma-derived cell line HepG2; host or cells: HepG2 lysate
T4 sequence (O00764 1-312): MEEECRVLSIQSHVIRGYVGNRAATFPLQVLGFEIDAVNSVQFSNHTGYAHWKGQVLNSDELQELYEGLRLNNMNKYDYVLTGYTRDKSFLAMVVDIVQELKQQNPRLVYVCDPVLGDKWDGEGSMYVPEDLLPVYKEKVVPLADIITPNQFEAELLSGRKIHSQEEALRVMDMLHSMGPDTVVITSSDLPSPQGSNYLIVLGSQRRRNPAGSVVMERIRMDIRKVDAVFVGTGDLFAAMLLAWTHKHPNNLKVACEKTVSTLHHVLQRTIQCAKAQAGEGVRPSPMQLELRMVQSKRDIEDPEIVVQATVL

AKR1B10 = molecular target: T5, AKR1B10 (Homo sapiens, UniProt O60218); experiment: as above; assay type: binding; settings: CPT-220 1 μM; for Fc: fold change assay vs competition, 50 μM competitor; for MS/MS: with 50 μM competitor, HepG2 lysate
T5 construct: performing CCMS experiments in the hepatoma-derived cell line HepG2; host or cells: HepG2 lysate
T5 sequence (O60218 whole entry): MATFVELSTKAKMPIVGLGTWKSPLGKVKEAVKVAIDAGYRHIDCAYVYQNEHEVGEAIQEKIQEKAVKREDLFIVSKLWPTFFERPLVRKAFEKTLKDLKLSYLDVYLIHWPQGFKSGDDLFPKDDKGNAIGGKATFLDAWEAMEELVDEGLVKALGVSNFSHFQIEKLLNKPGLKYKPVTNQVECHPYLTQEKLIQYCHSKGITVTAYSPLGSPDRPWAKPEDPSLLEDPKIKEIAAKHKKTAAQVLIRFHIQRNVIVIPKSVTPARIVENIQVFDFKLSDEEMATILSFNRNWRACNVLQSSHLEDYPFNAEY

NIPSNAP3A = molecular target: T6, NIPSNAP3A (Homo sapiens, UniProt Q9UFN0); experiment: as above; assay type: binding; settings: CPT-220 1 μM; for Fc: fold change assay vs competition, 50 μM competitor; for MS/MS: with 50 μM competitor, HepG2 lysate
T6 construct: performing CCMS experiments in the hepatoma-derived cell line HepG2; host or cells: HepG2 lysate
T6 sequence (Q9UFN0 1-247): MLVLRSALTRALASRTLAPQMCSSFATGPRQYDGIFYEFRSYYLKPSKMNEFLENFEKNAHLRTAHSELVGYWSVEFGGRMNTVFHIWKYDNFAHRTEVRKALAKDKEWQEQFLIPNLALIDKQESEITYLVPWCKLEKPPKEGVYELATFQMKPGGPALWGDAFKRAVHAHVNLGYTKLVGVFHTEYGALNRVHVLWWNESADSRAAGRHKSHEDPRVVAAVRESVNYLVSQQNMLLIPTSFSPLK

GCDH = molecular target: T7, GCDH (Homo sapiens, UniProt Q92947); experiment: CCMS differential competition, HepG2 lysate, active capture compound CPT-224; assay type: binding; settings: CPT-224 1 μM; for Fc: fold change assay vs competition, 50 μM competitor; for MS/MS: with 50 μM competitor, HepG2 lysate
T7 construct: performing CCMS experiments in the hepatoma-derived cell line HepG2; host or cells: HepG2 lysate
T7 sequence (Q92947 45-438): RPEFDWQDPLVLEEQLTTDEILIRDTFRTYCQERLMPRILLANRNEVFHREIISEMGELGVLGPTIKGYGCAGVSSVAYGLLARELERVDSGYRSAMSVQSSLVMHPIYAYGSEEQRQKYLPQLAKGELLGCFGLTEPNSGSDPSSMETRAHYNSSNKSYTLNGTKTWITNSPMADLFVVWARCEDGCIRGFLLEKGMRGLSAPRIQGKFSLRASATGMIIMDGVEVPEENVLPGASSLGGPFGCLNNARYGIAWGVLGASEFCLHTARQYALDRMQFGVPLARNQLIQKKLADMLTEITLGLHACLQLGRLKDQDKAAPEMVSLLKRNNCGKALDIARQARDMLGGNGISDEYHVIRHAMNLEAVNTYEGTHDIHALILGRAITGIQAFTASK

ADI1 = molecular target: T8, ADI1 (Homo sapiens, UniProt Q9BV57); experiment: as above; assay type: binding; settings: CPT-224 1 μM; for Fc: fold change assay vs competition, 50 μM competitor; for MS/MS: with 50 μM competitor, HepG2 lysate
T8 construct: performing CCMS experiments in the hepatoma-derived cell line HepG2; host or cells: HepG2 lysate
T8 sequence (Q9BV57 1-179): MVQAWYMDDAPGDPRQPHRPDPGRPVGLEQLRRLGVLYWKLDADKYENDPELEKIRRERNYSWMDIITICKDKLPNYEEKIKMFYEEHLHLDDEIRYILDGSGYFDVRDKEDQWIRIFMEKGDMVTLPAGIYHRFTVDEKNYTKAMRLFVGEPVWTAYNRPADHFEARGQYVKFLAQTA

CCBL2 = molecular target: T9, CCBL2 (Homo sapiens, UniProt Q6YP21); experiment: as above; assay type: binding; settings: CPT-224 1 μM; for Fc: fold change assay vs competition, 50 μM competitor; for MS/MS: with 50 μM competitor, HepG2 lysate
T9 construct: performing CCMS experiments in the hepatoma-derived cell line HepG2; host or cells: HepG2 lysate
T9 sequence (Q6YP21 whole entry): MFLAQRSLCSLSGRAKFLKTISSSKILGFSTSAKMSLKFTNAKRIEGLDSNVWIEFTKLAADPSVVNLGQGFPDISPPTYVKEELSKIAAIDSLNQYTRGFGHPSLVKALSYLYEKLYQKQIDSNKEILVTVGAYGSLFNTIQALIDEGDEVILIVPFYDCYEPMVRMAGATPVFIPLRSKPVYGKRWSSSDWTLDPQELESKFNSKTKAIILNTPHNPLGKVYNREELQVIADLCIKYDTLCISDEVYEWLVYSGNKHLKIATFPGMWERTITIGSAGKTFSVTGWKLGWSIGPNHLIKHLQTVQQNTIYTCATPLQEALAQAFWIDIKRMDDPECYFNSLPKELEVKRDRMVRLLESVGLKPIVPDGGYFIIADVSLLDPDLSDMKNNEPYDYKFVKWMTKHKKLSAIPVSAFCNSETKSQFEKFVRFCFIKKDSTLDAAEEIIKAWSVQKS

[8] = in vivo; cited from earlier work
α-synuclein monomers = α-synuclein monomers (Homo sapiens, UniProt P37840); settings: cited from earlier work
Aβ42 protofibrils = Aβ42 protofibrils (Homo sapiens, UniProt P05067); settings: cited from earlier work
Sequence of Aβ42 protofibrils (P05067 672-713 limits assumed): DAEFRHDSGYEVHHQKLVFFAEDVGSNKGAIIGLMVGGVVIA

[9] = molecular target: enoyl-acyl carrier protein reductase (InhA) (Mycobacterium tuberculosis, UniProt P9WGR1); settings: cited from earlier work
Sequence of enoyl-acyl carrier protein reductase (InhA) (P9WGR1 whole entry, looked up): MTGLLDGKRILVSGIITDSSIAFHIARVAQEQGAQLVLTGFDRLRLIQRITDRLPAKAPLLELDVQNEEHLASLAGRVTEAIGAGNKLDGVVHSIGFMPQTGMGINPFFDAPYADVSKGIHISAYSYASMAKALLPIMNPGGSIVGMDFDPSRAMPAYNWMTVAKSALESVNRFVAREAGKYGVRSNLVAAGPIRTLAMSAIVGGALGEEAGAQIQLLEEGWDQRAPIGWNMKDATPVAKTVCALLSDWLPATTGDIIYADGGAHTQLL

Structure (SMILES) | competition of HIBCH capture (dCCMS) (HIBCH [1]) | binding to HIBCH (HIBCH [1]) | competition of HIBCH capturing (anti-HIBCH Western Blot) (HIBCH [2]) | competition of crosslinking of HIBCH with CPT-224 (anti-Streptavidin Western Blot) (HIBCH [2]) | competition of COMT capturing (anti-COMT Western Blot) (COMT [3]) | competition of crosslinking of COMT with CPT-224 (anti-Streptavidin Western Blot) (COMT [3]) | mitochondrial cytotoxicity (HepG2 cells [4]) | IC50 (COMT [5]) [nM] | mitochondrial membrane potential (HepG2 cells [6]; 50 μM) | mitochondrial membrane potential (HepG2 cells [6]; 100 μM) | Fc (COMT [7]) | MS/MS (COMT [7]) | Fc (PDXK) | MS/MS (PDXK) | Fc (AKR1B10) | MS/MS (AKR1B10) | Fc (NIPSNAP3A) | MS/MS (NIPSNAP3A) | Fc (GCDH) | IC50 in galactose media compared to glucose media (HepG2 cells [4]) | other results
CCN1C(=O)S/C(=C\c2cc(O)c(O)c([N+](=O)[O-])c2)C1=O [CPT-212] | specifically competed | identified to bind | capturing was abolished | competed | signals were abolished | competed | significantly higher than that of entacapone and CPT-401 (A1) | 179 | 20-30 % of untreated HepG2 cells | 0-5 % of the control | 10.90 | 5 | 24.9 | 3.75 | 3.1 | 0 | 3 | 0.025 | 6.34 |  | MS/MS (GCDH): 2.3; Fc (ADI1): 4.29; MS/MS (ADI1): 0.3; Fc (CCBL2): 3.40; MS/MS (CCBL2): 2
CCN(CC)C(=O)c1cc2cc(O)c(O)c([N+](=O)[O-])c2cc1C(=O)N(CC)CC [CPT-401, N2,N2,N3,N3-tetraethyl-6,7-dihydroxy-5-nitro-naphthalene-2,3-dicarboxamide] | no competition was observed |  |  | no competition | signals were abolished | competed | low mitochondrial cytotoxicity | 54 | more than 50 % of untreated HepG2 cells | 40-50 % of the control | 34.2 | 3 | 16 | 0 | 4.7 | 0.5 | 7.5 | 0 | 5.90 | much less than for CPT-212 (B1) | competition of COMT capture, dose-dependent capturing (COMT [7]): complete competition; MS/MS (GCDH): 2.6; Fc (ADI1): 3.67; MS/MS (ADI1): 0.3; Fc (CCBL2): 3.05; MS/MS (CCBL2): 2.6
CCN(CC)C(=O)/C(C#N)=C/c1cc(O)c(O)c([N+](=O)[O-])c1 [entacapone, reference compound] |  |  |  |  |  |  |  |  | more than 50 % of untreated HepG2 cells | 40-50 % of the control |  |  |  |  |  |  |  |  |  | a much smaller effect | toxicity [8]: more favorable toxicity profile
Cc1ccc(C(=O)c2cc(O)c(O)c([N+](=O)[O-])c2)cc1 [tolcapone, reference compound] | specifically identified when tolcapone was used as competitor | identified to bind | capturing was abolished | competed |  |  | mitochondrial toxicant; also recorded: significantly higher than that of entacapone and CPT-401 (A1) |  | 20-30 % of untreated HepG2 cells | 0-5 % of the control |  |  |  |  |  |  |  |  |  | > 4 fold | competition of HIBCH capture, dose-dependent capturing (HIBCH [1]; CPT-224 5 μM to 40 nM): competed only with tolcapone; toxicity [8]: severe hepatotoxicity in several cases; inhibition of aggregation of α-synuclein monomers (α-synuclein monomers): inhibit aggregation of α-synuclein monomers; inhibition of aggregation of Aβ42 protofibrils to mature amyloid fibrils (Aβ42 protofibrils): inhibit the aggregation of Aβ42 protofibrils to mature amyloid fibrils; competition of COMT capture, dose-dependent capturing (COMT [7]): complete competition; binding and inhibition of InhA [9]: bind and inhibit
